Measurements taken from patent US9615577B2, “Herbicidally active cyclic dione compounds, or derivatives therefor, substituted by a phenyl which has an alkynyl-containing substituent” (Syngenta Limited, priority 2012, dated 2017).

Legend:
Type in all cases: in vivo
[1] = test system: Abutilon theophasti Medik. (ABUTH); assay: Test 1A glasshouse assay for herbicidal activity, pre-emergence; settings: 312 h, 250 g/ha, evaluated after 13 days, read-out: percentage phytotoxicity ABUTH
Experimental: (§1) Seeds of a variety of test species were sown in standard soil in pots. After cultivation for one day (pre-emergence) or after 8 days cultivation (post-emergence) under controlled conditions in a glasshouse (at 24/16° C., day/night; 14 hours light; 65% humidity), the plants were sprayed with an aqueous spray solution derived from the formulation of the technical active ingredient in acetone/I water (50:50) solution containing 0.5% Tween 20 (polyoxyethelyene sorbitan monolaurate, CAS RN 9005-64-5). The test plants were then grown in a glasshouse under controlled conditions in a glasshouse (at 24/16° C., day/night; 14 hours light; 65% humidity) and watered twice daily. After 13 days for pre and post-emergence, the test was evaluated visually for percentage phytotoxicity to the plant (where 100=total damage to plant; 0=no damage to plant).
(§2) Alopecurus myosuroides (ALOMY), Setaria faberi (SETFA), Echinochloa crus-galli (ECHCG), Solanum nigrum (SOLNI), Amaranthus retroflexus (AMARE), Ipomoea hederacea (IPOHE), and Abutilon theophasti Medik. (ABUTH, common English name “velvetleaf”). Of these, Alopecurus myosuroides (ALOMY), Setaria faberi (SETFA), and Echinochloa crus-galli (ECHCG) are grassy monocotyledonous weeds.

[2] = test system: Amaranthus retroflexus (AMARE); assay: as above; settings: 312 h, 250 g/ha, evaluated after 13 days, read-out: percentage phytotoxicity AMARE
Experimental: as §1, §2

Setaria faberi (SETFA) [3] = assay: as above; settings: 312 h, 250 g/ha, evaluated after 13 days, read-out: percentage phytotoxicity SETFA
Experimental: as §1, §2

[4] = test system: Echinochloa crus-galli (ECHCG); assay: as above; settings: 312 h, 250 g/ha, evaluated after 13 days, read-out: percentage phytotoxicity ECHCG
Experimental: as §1, §2

[5] = test system: Alopecurus myosuroides (ALOMY); assay: as above; settings: 312 h, 250 g/ha, evaluated after 13 days, read-out: percentage phytotoxicity ALOMY
Experimental: as §1, §2

[6] = test system: Abutilon theophasti Medik. (ABUTH); assay: Test 1A glasshouse assay for herbicidal activity, post-emergence; settings: 312 h, evaluated after 13 days, read-out: percentage phytotoxicity ABUTH
Experimental: as §1, §2

[7] = test system: Amaranthus retroflexus (AMARE); assay: as above; settings: 312 h, evaluated after 13 days, read-out: percentage phytotoxicity AMARE
Experimental: as §1, §2

Setaria faberi (SETFA) [8] = assay: as above; settings: 312 h, evaluated after 13 days, read-out: percentage phytotoxicity SETFA
Experimental: as §1, §2

[9] = test system: Echinochloa crus-galli (ECHCG); assay: as above; settings: 312 h, evaluated after 13 days, read-out: percentage phytotoxicity ECHCG
Experimental: as §1, §2

[10] = test system: Alopecurus myosuroides (ALOMY); assay: as above; settings: 312 h, evaluated after 13 days, read-out: percentage phytotoxicity ALOMY
Experimental: as §1, §2

Setaria faberi (SETFA) [11] = assay: Biological Example 2 comparative herbicidal data, post-emergence glasshouse screen; settings: 312 h, read-out: Post-emergence herbicidal activities (percentage phytotoxicity) SETFA; for pest or weed control at 15.625 g/ha: 15.625 g/ha application rate; for pest or weed control at 62.5 g/ha: 62.5 g/ha application rate
Experimental: as §1
(§3) Comparative herbicidal data is given below for certain exemplified compounds with 4-(prop-1-ynyl)-2,6-dimethylphenyl or 4-(chloroethynyl)-2,6-dimethylphenyl headgroups, compared to the corresponding compounds with either 4-ethynyl-2,6-dimethylphenyl or 2,4,6-trimethylphenyl headgroups, as follows. Comparative herbicidal data is also given below for certain exemplified compounds with 4-(prop-1-ynyl)-2-chloro-6-methoxyphenyl headgroups, compared to the corresponding compounds with 4-ethynyl-2-chloro-6-methoxyphenyl or 4-(but-1-ynyl)-2-chloro-6-methoxyphenyl or 4-methyl-2-chloro-6-methoxyphenyl or 2-chloro-6-methoxyphenyl headgroups, as follows.
(§4) Except where specified otherwise, the glasshouse screen for herbicidal activity is substantially the same as that presented in Biological Example 1A (Test 1A) hereinabove. The weed abbreviations are as defined in Biological Example 1A.

[12] = test system: Echinochloa crus-galli (ECHCG); assay: as above; settings: 312 h, read-out: Post-emergence herbicidal activities (percentage phytotoxicity) ECHCG; for pest or weed control at 15.625 g/ha: 15.625 g/ha application rate; for pest or weed control at 62.5 g/ha: 62.5 g/ha application rate
Experimental: as §1, §3, §4

[13] = test system: Alopecurus myosuroides (ALOMY); assay: as above; settings: 312 h, read-out: Post-emergence herbicidal activities (percentage phytotoxicity) ALOMY; for pest or weed control at 15.625 g/ha: 15.625 g/ha application rate; for pest or weed control at 62.5 g/ha: 62.5 g/ha application rate
Experimental: as §1, §3, §4

Compound | pest or weed control at 250 g/ha [1] | pest or weed control at 250 g/ha [2] | pest or weed control at 250 g/ha (Setaria faberi (SETFA) [3]) | pest or weed control at 250 g/ha [4] | pest or weed control at 250 g/ha [5] | pest or weed control at 250 g/ha [6] | pest or weed control at 250 g/ha [7] | pest or weed control at 250 g/ha (Setaria faberi (SETFA) [8]) | pest or weed control at 250 g/ha [9] | pest or weed control at 250 g/ha [10] | pest or weed control at 30 g/ha [6] | pest or weed control at 30 g/ha [7] | pest or weed control at 30 g/ha (Setaria faberi (SETFA) [8]) | pest or weed control at 30 g/ha [9] | pest or weed control at 30 g/ha [10] | also measured
CC#Cc1ccc(C2C(=O)C3CCC(C3)C2=O)c(Cl)c1 (centres unmarked) [Compound A-11] | 50% | 70% | 80% | 100% | 100% | 80% | 30% | 100% | 100% | 100% | – | – | – | – | – | –
CC#Cc1cc(Cl)c(C2C(=O)C3CCC(C3)C2=O)c(OCC(F)(F)F)c1 (centres unmarked) [Compound A-19, 3-[2-chloro-4-prop-1-ynyl-6-(2,2,2-trifluoroethoxyl)phenyl]bicyclo[3.2.1]octane-2,4-dione] | 0% | 0% | 60% | 60% | 40% | 0% | 0% | 90% | 100% | 70% | – | – | – | – | – | –
CC#Cc1cc(Cl)c(C2C(=O)CC(CCSC)CC2=O)c(OC)c1 (centres unmarked) [Compound A-23, 2-(2-Chloro-6-methoxy-4-prop-1-ynyl-phenyl)-5-(2-methylsulfanylethyl)cyclohexane-1,3-dione] | 30% | 70% | 90% | 100% | 90% | 70% | 20% | 100% | 100% | 90% | 30% | 10% | 100% | 100% | 60% | –
CC#Cc1cc(Cl)c(C2=C(OC(=O)c3ccc(Cl)cc3)CC(C3CCOCC3)CC2=O)c(OC)c1 (centres unmarked) [Compound P-3] | 80% | 100% | 100% | 100% | 100% | 80% | 80% | 100% | 100% | 90% | 70% | 80% | 100% | 100% | 100% | pest or weed control at 8 g/ha ([6]; 8 g/ha): 20%; pest or weed control at 8 g/ha ([7]; 8 g/ha): 20%; pest or weed control at 8 g/ha (Setaria faberi (SETFA) [8]; 8 g/ha): 100%; pest or weed control at 8 g/ha ([9]; 8 g/ha): 100%; pest or weed control at 8 g/ha ([10]; 8 g/ha): 90%
CC#Cc1cc(C)c(C2=C(OS(C)(=O)=O)CC(CC3CCOCC3)CC2=O)c(C)c1 (centres unmarked) [Compound P-4] | 10% | 20% | 80% | 100% | 80% | 0% | 0% | 80% | 80% | 80% | – | – | – | – | – | –
CC#Cc1cc(C)c(C2=C(OC(=O)C(C)(C)C)C3CCC(C3)C2=O)c(C)c1 (centres unmarked) [Compound P-5] | 0% | 0% | 100% | 100% | 100% | 70% | 10% | 90% | 100% | 90% | 0% | 0% | 70% | 80% | 60% | –
CC#Cc1cc(Cl)c(C2=C(OC(=O)SCC)C3CCC(C3)C2=O)c(OCC(F)(F)F)c1 (centres unmarked) [Compound P-6, [3-[2-Chloro-4-prop-1-ynyl-6-(2,2,2-trifluoroethoxyl)phenyl]-4-oxo-2-bicyclo[3.2.1]oct-2-enyl]ethylsulfanylformate] | 0% | 20% | 10% | – | 10% | 0% | 20% | 50% | 80% | 50% | – | – | – | – | – | –
CC#Cc1cc(Cl)c(C2=C(OC(=O)C(C)(C)C)C3CCC(C3)C2=O)c(OC)c1 (centres unmarked) [Compound P-7] | 0% | 0% | 100% | 100% | 100% | 70% | 0% | 100% | 100% | 100% | 10% | 0% | 90% | 100% | 90% | –
C#Cc1ccc(C2C(=O)C(C)(C)OC(C)(C)C2=O)c(C)c1 [Compound X-1, reference compound] | – | – | – | – | – | – | – | – | – | – | – | – | – | – | – | pest or weed control at 15.625 g/ha (Setaria faberi (SETFA) [11]): 0%; pest or weed control at 62.5 g/ha (Setaria faberi (SETFA) [11]): 30%; pest or weed control at 15.625 g/ha [12]: 0%; pest or weed control at 62.5 g/ha [12]: 0%; pest or weed control at 15.625 g/ha [13]: 20%; pest or weed control at 62.5 g/ha [13]: 10%
C#Cc1cc(C)c(C2C(=O)C3CCC(C3)C2=O)c(C)c1 (centres unmarked) [Compound X-2, reference compound] | – | – | – | – | – | – | – | – | – | – | – | – | – | – | – | pest or weed control at 15.625 g/ha (Setaria faberi (SETFA) [11]): 50%; pest or weed control at 62.5 g/ha (Setaria faberi (SETFA) [11]): 60%; pest or weed control at 15.625 g/ha [12]: 0%; pest or weed control at 62.5 g/ha [12]: 70%; pest or weed control at 15.625 g/ha [13]: 0%; pest or weed control at 62.5 g/ha [13]: 10%
C#Cc1cc(C)c(C2C(=O)CC(CC3CCOCC3)CC2=O)c(C)c1 (centres unmarked) [Compound X-3, reference compound] | – | – | – | – | – | – | – | – | – | – | – | – | – | – | – | pest or weed control at 15.625 g/ha (Setaria faberi (SETFA) [11]): 60%; pest or weed control at 62.5 g/ha (Setaria faberi (SETFA) [11]): 70%; pest or weed control at 15.625 g/ha [12]: 20%; pest or weed control at 62.5 g/ha [12]: 50%; pest or weed control at 15.625 g/ha [13]: 30%; pest or weed control at 62.5 g/ha [13]: 60%
